This passage reports MIC and CC50 results from ChEMBL document CHEMBL5543097, “Synthesis and structure-activity relationships of novel 14-membered 2-fluoro ketolides with structural modification at the C11 position” (Eur J Med Chem, 2024).

Molecules are shown by their SMILES. In brackets after ≈: the same amount, converted by molar mass.

The test system of one series is Streptococcus pyogenes. Nature of the series: Antibacterial activity against erythromycin-resistant Streptococcus pyogenes ATCC 19615 assessed as inhibition of visible bacterial growth incubated for 18 hrs by broth microdilution method. Type of series: functional.
Another series relates to Streptococcus agalactiae. Nature of the series: Antibacterial activity against erythromycin-resistant Streptococcus agalactiae 19-9 assessed as inhibition of visible bacterial growth incubated for 18 hrs by broth microdilution method. Type of series: functional.
Series [1] concerns Streptococcus pneumoniae. The series can be described thus: Antibacterial activity against erythromycin-resistant Streptococcus pneumoniae SPN19-14 assessed as inhibition of visible bacterial growth incubated for 18 hrs by broth microdilution method. Format: functional.
Series [2] concerns Streptococcus pneumoniae. The series can be described thus: Antibacterial activity against erythromycin-resistant Streptococcus pneumoniae SPN19-13 assessed as inhibition of visible bacterial growth incubated for 18 hrs by broth microdilution method. Type of series: functional.
In series [3] the test system is Streptococcus pneumoniae. The series can be described thus: Antibacterial activity against erythromycin-resistant Streptococcus pneumoniae SPN19-8 assessed as inhibition of visible bacterial growth incubated for 18 hrs by broth microdilution method. Format: functional.
Series [4] concerns Staphylococcus epidermidis. Nature of the series: Antibacterial activity against erythromycin-resistant Staphylococcus epidermidis 19-11 assessed as inhibition of visible bacterial growth incubated for 18 hrs by broth microdilution method. Format: functional.
Series [5] has as its system Staphylococcus epidermidis. The series can be described thus: Antibacterial activity against erythromycin-resistant Staphylococcus epidermidis 19-9 assessed as inhibition of visible bacterial growth incubated for 18 hrs by broth microdilution method. Format: functional.
Series [6] relates to Staphylococcus epidermidis. Nature of the series: Antibacterial activity against erythromycin-resistant Staphylococcus epidermidis 19-8 assessed as inhibition of visible bacterial growth incubated for 18 hrs by broth microdilution method. Type of series: functional.
Series [7] has as its system Staphylococcus epidermidis. Nature of the series: Antibacterial activity against erythromycin-resistant Staphylococcus epidermidis 19-6 assessed as inhibition of visible bacterial growth incubated for 18 hrs by broth microdilution method. Format: functional.
Series [8] deals with Staphylococcus epidermidis. The series can be described thus: Antibacterial activity against erythromycin-resistant Staphylococcus epidermidis 19-4 assessed as inhibition of visible bacterial growth incubated for 18 hrs by broth microdilution method. Type of series: functional.
The subject of series [9] is Staphylococcus epidermidis. The series can be described thus: Antibacterial activity against erythromycin-resistant Staphylococcus epidermidis 19-5 assessed as inhibition of visible bacterial growth incubated for 18 hrs by broth microdilution method. Format: functional.
In series [10] the test system is Moraxella catarrhalis. Nature of the series: Antibacterial activity against Moraxella catarrhalis BCA 19-5 assessed as inhibition of bacterial growth incubated for 24 hrs by CLSI based broth microdilution method. Format: functional. The settings on record: Moraxella catarrhalis, BCA 19-5, 24 h, read-out: MIC.
Series [11] deals with Moraxella catarrhalis. Nature of the series: Antibacterial activity against Moraxella catarrhalis BCA 19-6 assessed as inhibition of bacterial growth incubated for 24 hrs by CLSI based broth microdilution method. The conditions noted are these: Moraxella catarrhalis, BCA 19-6, 24 h, read-out: MIC. Type of series: functional.
In series [12] the test system is Moraxella catarrhalis. The series can be described thus: Antibacterial activity against Moraxella catarrhalis BCA 19-31 assessed as inhibition of bacterial growth incubated for 24 hrs by CLSI based broth microdilution method. Type of series: functional. The conditions noted are these: BCA 19-31, 24 h.
Series [13] deals with Haemophilus influenzae. The series can be described thus: Antibacterial activity against Haemophilus influenzae HIN 19-15 assessed as inhibition of bacterial growth incubated for 20 to 24 hrs by CLSI based broth microdilution method. Type of series: functional. The conditions noted are these: time 20-24 hrs.
For series [14], the system named is Haemophilus influenzae. Nature of the series: Antibacterial activity against Haemophilus influenzae HIN 19-18 assessed as inhibition of bacterial growth incubated for 20 to 24 hrs by CLSI based broth microdilution method. The conditions noted are these: HIN 19-18, time 20-24 hrs. Type of series: functional.
Series [15] relates to Haemophilus influenzae. Nature of the series: Antibacterial activity against Haemophilus influenzae HIN 20-18 assessed as inhibition of bacterial growth incubated for 20 to 24 hrs by CLSI based broth microdilution method. Format: functional. The settings on record: time 20-24 hrs.
Series [16] in a line: Cytotoxicity against mouse AML12 cells assessed as reduction in cell viability incubated for 48 hrs by MTT assay. Format: toxicity, cell-based.

Turning to `CC[C@H]1OC(=O)[C@@](C)(F)C(=O)[C@H](C)[C@@H](O[C@@H]2O[C@H](C)C[C@H](N(C)C)[C@H]2O)[C@](C)(OC)C[C@@H](C)C(=O)[C@H](C)[C@H]2N(CCCOC(=O)Nc3cccc(C)c3C)C(=O)O[C@]12C`, the MIC with Streptococcus pyogenes was less than 0.03 µg/mL; in the series on Streptococcus agalactiae, 1 µg/mL (≈ 1.2 µM); with Streptococcus pneumoniae [1], 0.06 µg/mL (≈ 0.0718 µM); with Streptococcus pneumoniae [2], 0.06 µg/mL (≈ 0.0718 µM); in the series with Streptococcus pneumoniae [3] it was 0.125 µg/mL (≈ 0.15 µM); in series [4] it was 0.03 µg/mL (≈ 0.0359 µM). For the same molecule, the MIC in series [5] is 0.125 µg/mL (≈ 0.15 µM); in [6] it was less than 0.03 µg/mL; in [7] it was 0.03 µg/mL (≈ 0.0359 µM); in [8], 0.03 µg/mL (≈ 0.0359 µM); in [9] it was less than 0.03 µg/mL; in the series with Moraxella catarrhalis [10], 0.125 µg/mL (≈ 0.15 µM). Also, the MIC is 0.125 µg/mL (≈ 0.15 µM) with Moraxella catarrhalis [11]; 0.125 µg/mL (≈ 0.15 µM) with Moraxella catarrhalis [12]; 8 µg/mL (≈ 9.57 µM) in the series with Haemophilus influenzae [13]; 8 µg/mL (≈ 9.57 µM) with Haemophilus influenzae [14]; 16 µg/mL (≈ 19.1 µM) in the series with Haemophilus influenzae [15]. Further, the CC50 at 48 h in series [16] was 26 µM.

On to `CC[C@H]1OC(=O)[C@@](C)(F)C(=O)[C@H](C)[C@@H](O[C@@H]2O[C@H](C)C[C@H](N(C)C)[C@H]2O)[C@](C)(OC)C[C@@H](C)C(=O)[C@H](C)[C@H]2N(CCCOC(=O)Nc3ccccc3Cl)C(=O)O[C@]12C`, for which the MIC is less than 0.03 µg/mL with Streptococcus pyogenes; 1 µg/mL (≈ 1.19 µM) in the series with Streptococcus agalactiae; 0.25 µg/mL (≈ 0.297 µM) in the series on Streptococcus pneumoniae [1]; 0.25 µg/mL (≈ 0.297 µM) in the series with Streptococcus pneumoniae [2]; 0.25 µg/mL (≈ 0.297 µM) in the series with Streptococcus pneumoniae [3]; less than 0.06 µg/mL in [4]. Further, the MIC in series [5] is 0.25 µg/mL (≈ 0.297 µM); in [6], 0.125 µg/mL (≈ 0.148 µM); in series [7], 0.125 µg/mL (≈ 0.148 µM); in [8], 0.06 µg/mL (≈ 0.0712 µM); in series [9] it was less than 0.03 µg/mL; with Moraxella catarrhalis [10] it was 0.25 µg/mL (≈ 0.297 µM). Besides, the MIC with Moraxella catarrhalis [11] stood at 0.5 µg/mL (≈ 0.594 µM); with Moraxella catarrhalis [12], 1.12 µg/mL (≈ 1.34 µM); in the series with Haemophilus influenzae [13], 8 µg/mL (≈ 9.5 µM); with Haemophilus influenzae [14], 8 µg/mL (≈ 9.5 µM); in the series with Haemophilus influenzae [15] it was 16 µg/mL (≈ 19 µM). In series [16], the CC50 at 48 h stood at 36.2 µM.

Consider `CC[C@H]1OC(=O)[C@@](C)(F)C(=O)[C@H](C)[C@@H](O[C@@H]2O[C@H](C)C[C@H](N(C)C)[C@H]2O)[C@](C)(OC)C[C@@H](C)C(=O)[C@H](C)[C@H]2N(CCCOC(=O)Nc3ccc(-c4ncccn4)cc3)C(=O)O[C@]12C`, for which the MIC in the series with Streptococcus pyogenes is less than 0.03 µg/mL; with Streptococcus agalactiae it was 4 µg/mL (≈ 4.51 µM); in the series with Streptococcus pneumoniae [1] it was 0.25 µg/mL (≈ 0.282 µM); in the series with Streptococcus pneumoniae [2] it was 0.5 µg/mL (≈ 0.564 µM); in the series with Streptococcus pneumoniae [3], 0.25 µg/mL (≈ 0.282 µM); in series [4], less than 0.03 µg/mL. For the same molecule, the MIC is 0.125 µg/mL (≈ 0.141 µM) in series [5]; 0.125 µg/mL (≈ 0.141 µM) in [6]; 0.125 µg/mL (≈ 0.141 µM) in series [7]; 0.06 µg/mL (≈ 0.0677 µM) in series [8]; less than 0.03 µg/mL in series [9]; 0.25 µg/mL (≈ 0.282 µM) in the series on Moraxella catarrhalis [10]. The MIC in the series with Moraxella catarrhalis [11] was 45 µg/mL (≈ 50.8 µM); in the series with Moraxella catarrhalis [12], 0.25 µg/mL (≈ 0.282 µM); in the series on Haemophilus influenzae [13], 14 µg/mL (≈ 15.8 µM); in the series with Haemophilus influenzae [14], 16 µg/mL (≈ 18.1 µM); in the series on Haemophilus influenzae [15], greater than 16 µg/mL. Moreover, in [16], the CC50 at 48 h amounted to 20.4 µM.

As for `CC[C@H]1OC(=O)[C@@](C)(F)C(=O)[C@H](C)[C@@H](O[C@@H]2O[C@H](C)C[C@H](N(C)C)[C@H]2O)[C@](C)(OC)C[C@@H](C)C(=O)[C@H](C)[C@H]2N(CCCOC(=O)Nc3cccc(Cl)c3)C(=O)O[C@]12C`, the MIC with Streptococcus pyogenes was less than 0.03 µg/mL; in the series on Streptococcus agalactiae, 0.5 µg/mL (≈ 0.594 µM); in the series with Streptococcus pneumoniae [1] it was 0.125 µg/mL (≈ 0.148 µM); in the series with Streptococcus pneumoniae [2] it was 0.125 µg/mL (≈ 0.148 µM); in the series with Streptococcus pneumoniae [3], 0.125 µg/mL (≈ 0.148 µM); in series [4] it was less than 0.03 µg/mL. The MIC in series [5] is 0.125 µg/mL (≈ 0.148 µM); in [6] it was less than 0.03 µg/mL; in series [7] it was less than 0.03 µg/mL; in [8], 0.03 µg/mL (≈ 0.0356 µM); in [9] it was less than 0.03 µg/mL; in the series on Moraxella catarrhalis [10] it was 0.125 µg/mL (≈ 0.148 µM). Further, the MIC in the series with Moraxella catarrhalis [11] was 2.25 µg/mL (≈ 2.67 µM); in the series on Haemophilus influenzae [13], 8 µg/mL (≈ 9.5 µM); in the series with Haemophilus influenzae [14], 4 µg/mL (≈ 4.75 µM); in the series on Haemophilus influenzae [15] it was 16 µg/mL (≈ 19 µM). Besides, in series [16], the CC50 at 48 h is 43.3 µM.

Turning to `CCOc1ccc(NC(=O)OCCCN2C(=O)O[C@]3(C)[C@@H](CC)OC(=O)[C@@](C)(F)C(=O)[C@H](C)[C@@H](O[C@@H]4O[C@H](C)C[C@H](N(C)C)[C@H]4O)[C@](C)(OC)C[C@@H](C)C(=O)[C@H](C)[C@@H]23)cc1`, the MIC with Streptococcus pyogenes is less than 0.03 µg/mL; with Streptococcus agalactiae, 2 µg/mL (≈ 2.35 µM); in the series with Streptococcus pneumoniae [1], 0.5 µg/mL (≈ 0.587 µM); in the series on Streptococcus pneumoniae [2], 0.5 µg/mL (≈ 0.587 µM); with Streptococcus pneumoniae [3], 0.25 µg/mL (≈ 0.293 µM); in series [4], 0.125 µg/mL (≈ 0.147 µM). The MIC worked out at 0.5 µg/mL (≈ 0.587 µM) in series [5]; 0.25 µg/mL (≈ 0.293 µM) in series [6]; 0.25 µg/mL (≈ 0.293 µM) in series [7]; 0.5 µg/mL (≈ 0.587 µM) in series [8]; 0.06 µg/mL (≈ 0.0704 µM) in series [9]; 0.5 µg/mL (≈ 0.587 µM) with Moraxella catarrhalis [10]. Further, the MIC in the series with Moraxella catarrhalis [11] was 1 µg/mL (≈ 1.17 µM); in the series on Moraxella catarrhalis [12], 0.5 µg/mL (≈ 0.587 µM); with Haemophilus influenzae [13], greater than 16 µg/mL; in the series on Haemophilus influenzae [14], 16 µg/mL (≈ 18.8 µM); in the series with Haemophilus influenzae [15] it was greater than 16 µg/mL. Further, the CC50 at 48 h in series [16] amounted to 36.5 µM.
